ChEMBL document CHEMBL1201862, “PubChem BioAssay data set” (2004)
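Step 1: Grow cells in 96-well plates. Step 2: Expose to compound for 48 hours at 5 concentrations. Step 3: Interpolate endpoints linearly; if unreached, use highest concentration. Abbreviation: GI50, concentration required for 50% inhibition of growth.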 Activity calls are given as the source filed them. Rule as the data show it: active = GI50 up to about 1.1 µM and inactive = higher.

Columns and labels:
Assay in all cases: growth of human tumour cells (NCI), 48 h
SK-OV-3 = test system: SK-OV-3
DU-145 = test system: DU-145
EKVX = test system: EKVX
OVCAR-8 = test system: OVCAR-8
NCI-H226 = test system: NCI-H226
SN12C = test system: SN12C
M14 = test system: M14
TK-10 = test system: TK-10
HT-29 = test system: HT-29
SK-MEL-2 = test system: SK-MEL-2
KM12 = test system: KM12
SK-MEL-5 = test system: SK-MEL-5
COLO 205 = test system: COLO 205
NCI-H522 = test system: NCI-H522
A549 = test system: A549
IGROV-1 = test system: IGROV-1
786-0 = test system: 786-0
UO-31 = test system: UO-31
HL-60 = test system: HL-60
CCRF-CEM = test system: CCRF-CEM

Measured: GI50

NC(CC1=CS(=O)(=O)c2ccc(Cl)cc21)C(=O)O (configuration not stated)
inactive: SK-OV-3 > 100 µM | DU-145 > 100 µM | EKVX > 100 µM | OVCAR-8 > 100 µM | NCI-H226 > 100 µM | SN12C > 100 µM | M14 > 100 µM | TK-10 > 100 µM | HT-29 > 100 µM | SK-MEL-2 > 100 µM | KM12 > 100 µM | SK-MEL-5 > 100 µM | COLO 205 > 100 µM | NCI-H522 > 100 µM | A549 > 100 µM | IGROV-1 > 100 µM | 786-0 > 100 µM

NCCN1C(=O)c2cc(Cl)c(Cl)cc2C1(O)c1ccc(Cl)cc1 (configuration not stated)
inactive: UO-31 4.86 µM | SK-OV-3 13.5 µM | DU-145 2.69 µM | EKVX 2.23 µM | HL-60 1.67 µM | OVCAR-8 2.03 µM | SN12C 3.72 µM | M14 1.77 µM | CCRF-CEM 3.61 µM | TK-10 1.92 µM | HT-29 1.89 µM | SK-MEL-2 1.84 µM | KM12 2.32 µM | SK-MEL-5 1.6 µM | COLO 205 1.65 µM | A549 2.09 µM | IGROV-1 2.07 µM | 786-0 1.61 µM

Cc1cc(S(=O)(=O)Nc2nc3ccccc3[nH]2)c(S)cc1Cl
inactive: UO-31 > 100 µM | SK-OV-3 > 100 µM | DU-145 > 100 µM | EKVX 53.6 µM | HL-60 35.5 µM | OVCAR-8 > 100 µM | SN12C > 100 µM | M14 > 100 µM | CCRF-CEM 26.6 µM | TK-10 > 100 µM | HT-29 > 100 µM | SK-MEL-2 30.9 µM | KM12 37.5 µM | SK-MEL-5 35.2 µM | COLO 205 82.2 µM | NCI-H522 97.3 µM | A549 45.2 µM | IGROV-1 61.5 µM | 786-0 46.5 µM

COc1ccc(N2C(=O)CC(Cl)C2=O)cc1 (configuration not stated)
inactive: UO-31 18.7 µM | SK-OV-3 > 100 µM | DU-145 94.6 µM | EKVX > 100 µM | OVCAR-8 16.6 µM | NCI-H226 20.5 µM | SN12C 17.5 µM | M14 > 100 µM | TK-10 18.8 µM | HT-29 17.8 µM | SK-MEL-2 > 100 µM | SK-MEL-5 > 100 µM | COLO 205 16.4 µM | NCI-H522 17.5 µM | A549 > 100 µM | IGROV-1 > 100 µM | 786-0 17.7 µM

C[C@]12CC[C@H]3[C@@H](CCC4=CC(=O)C=C[C@@]43O)[C@@H]1CCC2=O
inactive: UO-31 > 100 µM | DU-145 > 100 µM | EKVX 70.8 µM | OVCAR-8 81.1 µM | NCI-H226 69.8 µM | SN12C > 100 µM | M14 > 100 µM | CCRF-CEM 26.4 µM | SK-MEL-2 77.4 µM | KM12 > 100 µM | SK-MEL-5 82 µM | COLO 205 > 100 µM | A549 62.1 µM | IGROV-1 94 µM | 786-0 > 100 µM

COc1ccc2c(n1)Sc1nc3ccccc3nc1N2
inactive: UO-31 20 µM | SK-OV-3 37.2 µM | DU-145 > 100 µM | EKVX 12.6 µM | OVCAR-8 16.2 µM | NCI-H226 10.7 µM | SN12C 21 µM | M14 > 100 µM | CCRF-CEM 29.4 µM | TK-10 15.6 µM | HT-29 85.7 µM | SK-MEL-2 > 100 µM | KM12 55.7 µM | SK-MEL-5 > 100 µM | COLO 205 > 100 µM | NCI-H522 78 µM | A549 > 100 µM | IGROV-1 5.92 µM | 786-0 26.8 µM

CCOC(=O)COc1ccc(/C=C/C(=O)c2ccc(OC)cc2)cc1
inactive: UO-31 19.3 µM | DU-145 29.9 µM | EKVX 27.8 µM | HL-60 27 µM | OVCAR-8 24.5 µM | SN12C 19 µM | M14 34.6 µM | CCRF-CEM 20.9 µM | TK-10 42 µM | HT-29 21.5 µM | SK-MEL-2 27.7 µM | KM12 28.4 µM | SK-MEL-5 > 10 µM | COLO 205 35.4 µM | NCI-H522 22.3 µM | A549 58.1 µM | IGROV-1 45.2 µM | 786-0 20.8 µM

CC(C)=CCC[C@@H](C)C1=C(O)C(=O)C(C)=C(Nc2ccccc2Br)C1=O
inactive: UO-31 11.3 µM | SK-OV-3 17.5 µM | DU-145 14.4 µM | EKVX 17.3 µM | HL-60 2.73 µM | OVCAR-8 7.57 µM | NCI-H226 14.7 µM | SN12C 12.5 µM | M14 15.2 µM | CCRF-CEM 3.84 µM | TK-10 22.4 µM | HT-29 19.6 µM | SK-MEL-2 13.3 µM | KM12 12.5 µM | SK-MEL-5 11.5 µM | COLO 205 15.9 µM | A549 17.8 µM | IGROV-1 8.69 µM | 786-0 13.3 µM

C#CC(O)(c1nc2ccccc2s1)c1nc2ccccc2s1
inactive: UO-31 15 µM | DU-145 26.4 µM | EKVX 19.3 µM | HL-60 21 µM | OVCAR-8 22 µM | SN12C 17.8 µM | M14 15.5 µM | CCRF-CEM 27.4 µM | TK-10 36.6 µM | HT-29 27.2 µM | SK-MEL-2 16.7 µM | KM12 29.4 µM | SK-MEL-5 15.6 µM | COLO 205 17.7 µM | NCI-H522 17.6 µM | A549 29 µM | IGROV-1 15.2 µM | 786-0 18.5 µM

COC(=O)CSc1nc2[nH]c(SC)c(C(N)=O)c2c(=O)n1-c1ccccc1
inactive: SK-OV-3 > 10 µM | DU-145 > 10 µM | EKVX > 10 µM | HL-60 > 10 µM | OVCAR-8 > 10 µM | SN12C > 10 µM | M14 > 10 µM | CCRF-CEM > 10 µM | TK-10 > 10 µM | HT-29 > 10 µM | KM12 > 10 µM | SK-MEL-5 > 10 µM | COLO 205 > 10 µM | A549 > 10 µM | IGROV-1 > 10 µM | 786-0 > 10 µM

CC[C@@H]1CN2CCC1C[C@@H]2C(O)c1ccnc2ccc(OCCN3CCN(CCOc4ccc5nccc(C(O)[C@@H]6C[C@@H]7CCN6C[C@@H]7CC)c5c4)CC3)cc12 (some centres not stated)
inactive: SK-OV-3 18.3 µM | DU-145 17.5 µM | EKVX 17.1 µM | HL-60 21.9 µM | OVCAR-8 19.3 µM | SN12C 14.3 µM | M14 12.8 µM | CCRF-CEM 4.45 µM | TK-10 14.4 µM | HT-29 15.7 µM | SK-MEL-2 19.9 µM | KM12 16.1 µM | SK-MEL-5 15 µM | COLO 205 14.7 µM | NCI-H522 12 µM | A549 15.3 µM | IGROV-1 13.9 µM | 786-0 13.4 µM

O=[N+]([O-])/C(Cl)=C(\NCCN/C(C(Cl)=C(Cl)Cl)=C(/Cl)[N+](=O)[O-])C(Cl)=C(Cl)Cl
inactive: UO-31 > 100 µM | SK-OV-3 69.5 µM | DU-145 > 100 µM | EKVX > 100 µM | HL-60 25.6 µM | OVCAR-8 40.3 µM | NCI-H226 > 100 µM | SN12C 70.5 µM | M14 61.1 µM | CCRF-CEM 27 µM | TK-10 71.4 µM | KM12 31.8 µM | COLO 205 36.4 µM | A549 45.2 µM | IGROV-1 62.7 µM | 786-0 31.6 µM

C#C[C@@H](OC(=O)c1ccc([N+](=O)[O-])cc1)[C@@H]1C[C@H]2O[C@@H]([C@H](C/C=C/CC)OC(=O)c3ccc([N+](=O)[O-])cc3)C[C@H]2O1
inactive: UO-31 > 100 µM | SK-OV-3 > 100 µM | DU-145 > 100 µM | EKVX > 100 µM | OVCAR-8 > 100 µM | NCI-H226 > 100 µM | SN12C > 100 µM | M14 > 100 µM | CCRF-CEM > 100 µM | TK-10 > 100 µM | HT-29 > 100 µM | SK-MEL-2 > 100 µM | KM12 > 100 µM | SK-MEL-5 > 100 µM | COLO 205 > 100 µM | NCI-H522 32.6 µM | A549 > 100 µM | IGROV-1 83.4 µM | 786-0 > 100 µM

O=C1NC2=NN=C(c3ccc(Br)cc3)CN2NC12c1ccccc1-c1ccccc12
inactive: UO-31 > 100 µM | SK-OV-3 > 100 µM | DU-145 > 100 µM | EKVX > 100 µM | OVCAR-8 > 100 µM | NCI-H226 > 100 µM | SN12C > 100 µM | M14 > 100 µM | CCRF-CEM 3.05 µM | TK-10 > 100 µM | HT-29 > 100 µM | SK-MEL-2 > 100 µM | SK-MEL-5 > 100 µM | COLO 205 > 100 µM | NCI-H522 > 100 µM | A549 > 100 µM | IGROV-1 > 100 µM | 786-0 > 100 µM

O=[N+]([O-])C(=C1NCCN1)/C(Cl)=C(/Cl)N1CCOCC1
inactive: UO-31 > 100 µM | SK-OV-3 > 100 µM | DU-145 > 100 µM | EKVX > 100 µM | OVCAR-8 > 100 µM | NCI-H226 > 100 µM | SN12C > 100 µM | M14 > 100 µM | CCRF-CEM > 100 µM | HT-29 > 100 µM | SK-MEL-2 > 100 µM | KM12 > 100 µM | COLO 205 > 100 µM | A549 > 100 µM | 786-0 > 100 µM
